Laboratory results published in PubChem BioAssay AID330 (DTP/NCI, 2004).
“And” between values parts separate entries of the source, which are not always exact repeats. Equal entries are not always repeated. Toxic doses and inconclusive results are not listed. Rule for the calls: active = survival T/C of 150% or more; inactive = T/C below 125% in these data. Peptide text beside a SMILES is read from it. * marks the point of attachment. Cbz = O=C(OCc1ccccc1)*

Test system: P388 leukemia ip, CD2F1 mice, survival T/C
Test: NCI In Vivo Anticancer Drug Screen. Data for tumor model P388 Leukemia (intraperitoneal) in CD2F1 (CDF1) mice
Conditions: endpoint: median survival time, higher = longer survival
In short: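 Mice carrying the transplanted tumor received test compound or vehicle. Survival was recorded in each group, and the value is the treated-group measurement divided by that of the vehicle-treated control group.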

[1] = dose: 50.0 mg/kg/injection, schedule: Q01DX009 (ip), vehicle: saline with Tween-80
[2] = dose: 100.0 mg/kg/injection, schedule: Q01DX009 (ip), vehicle: saline with Tween-80
[3] = dose: 200.0 mg/kg/injection, schedule: Q01DX009 (ip), vehicle: saline with Tween-80
[4] = dose: 200.0 mg/kg/injection, schedule: Q04DX003 (ip), vehicle: saline with Tween-80
[5] = dose: 50.0 mg/kg/injection, schedule: Q01DX009 (ip), vehicle: Klucel (hydroxypropylcellulose) (HPC)
[6] = dose: 200.0 mg/kg/injection, schedule: Q01DX009 (ip), vehicle: Klucel (hydroxypropylcellulose) (HPC)
[7] = dose: 100.0 mg/kg/injection, schedule: Q04DX003 (ip), vehicle: Klucel (hydroxypropylcellulose) (HPC)
[8] = dose: 200.0 mg/kg/injection, schedule: Q04DX003 (ip), vehicle: Klucel (hydroxypropylcellulose) (HPC)
[9] = dose: 400.0 mg/kg/injection, schedule: Q04DX003 (ip), vehicle: Klucel (hydroxypropylcellulose) (HPC)
[10] = dose: 50.0 mg/kg/injection, schedule: Q01DX005 (ip), vehicle: saline with Tween-80
[11] = dose: 100.0 mg/kg/injection, schedule: Q01DX005 (ip), vehicle: saline with Tween-80
[12] = dose: 100.0 mg/kg/injection, schedule: Q01DX009 (ip), vehicle: Klucel (hydroxypropylcellulose) (HPC)
[13] = dose: 200.0 mg/kg/injection, schedule: Q01DX005 (ip), vehicle: saline with Tween-80
[14] = dose: 100.0 mg/kg/injection, schedule: Q04DX003 (ip), vehicle: saline with Tween-80
[15] = dose: 400.0 mg/kg/injection, schedule: Q04DX003 (ip), vehicle: saline with Tween-80

Measured: T/C

CCCCCSc1ncnc2nc[nH]c12
inactive: [1] 100 % of control | [2] 109 % of control | dose: 100.05 mg/kg/injection, schedule: Q04DX003 (ip), vehicle: saline with Tween-80 95 % of control | [3] 104 % of control | [4] 104 % of control

Cc1cccc(C)c1N=O
inactive: [5] 122 % of control and 124 % of control | [6] 87 % of control

CCN(CC)Cc1c(C)[nH]c2c(ccc3cc4ccccc4cc32)c1=O
inactive: [7] 94 % of control | [8] 97 % of control | [9] 96 % of control

COc1ccc2c(c1)C(Br)CCCC2=O (stereo unspecified)
inactive: dose: 400.0 mg/kg/injection, schedule: Q01DX009 (ip), vehicle: distilled water + alcohol 106 % of control

O=C1N2CCCC2(S)C(=O)N2CCCC12[S-].[Zn] (stereo unspecified)
inactive: dose: 12.5 mg/kg/injection, schedule: Q01DX009 (ip), vehicle: saline 95 % of control and 97 % of control | dose: 25.0 mg/kg/injection, schedule: Q01DX009 (ip), vehicle: saline 100 % of control and 90 % of control | dose: 50.0 mg/kg/injection, schedule: Q01DX009 (ip), vehicle: saline 108 % of control and 119 % of control | dose: 100.0 mg/kg/injection, schedule: Q01DX009 (ip), vehicle: saline 124 % of control and 95 % of control

Cc1cc(Cl)ccc1-n1nc(C)c2c(N)nc(N)nc21
inactive: [7] 109 % of control | [8] 102 % of control

CSCCC([NH-])C(=O)O.CSCCC([NH-])C(=O)O.[Zn+2] (stereo unspecified)
inactive: [10] 110 % of control | [11] 111 % of control

CCCCCCCCCOCC(O)CCl (stereo unspecified)
inactive: [5] 97 % of control | [12] 98 % of control | [6] 93 % of control

COC1(OC)C2(Cl)C(Cl)=C(Cl)C1(Cl)C1C3CC=CC(CC12)S3 (stereo unspecified)
inactive: dose: 100.0 mg/kg/injection, schedule: Q04DX002 (ip), vehicle: saline with Tween-80 102 % of control | dose: 200.0 mg/kg/injection, schedule: Q04DX002 (ip), vehicle: saline with Tween-80 100 % of control | dose: 400.0 mg/kg/injection, schedule: Q04DX002 (ip), vehicle: saline with Tween-80 99 % of control

Oc1[nH]c(N=C2N=c3ccccc3=N2)c2ccccc12
inactive: [1] 118 % of control | [2] 103 % of control | [3] 104 % of control

O=C1CSc2nc3c(Cl)cc(Cl)cc3c(=O)n21
inactive: [10] 108 % of control | [11] 100 % of control | [13] 105 % of control

COc1cc(C(Nc2ncccn2)c2cc3c(cc2O)OCO3)cc(OC)c1O (stereo unspecified)
inactive: dose: 60.0 mg/kg/injection, schedule: Q01DX005 (ip), vehicle: saline with Tween-80 105 % of control | dose: 120.0 mg/kg/injection, schedule: Q01DX005 (ip), vehicle: saline with Tween-80 90 % of control | dose: 240.0 mg/kg/injection, schedule: Q01DX005 (ip), vehicle: saline with Tween-80 90 % of control

O=C(Nc1nccs1)C(F)(F)F
inactive: [1] 104 % of control | [2] 104 % of control | [3] 99 % of control | dose: 400.0 mg/kg/injection, schedule: Q01DX009 (ip), vehicle: saline with Tween-80 108 % of control

Cc1c2ccncc2c(CNCCO)c2c3ccccc3n(C)c12
inactive: dose: 5.0 mg/kg/injection, schedule: Q01DX005 (ip), vehicle: saline 110 % of control | dose: 10.0 mg/kg/injection, schedule: Q01DX005 (ip), vehicle: saline 108 % of control | dose: 20.0 mg/kg/injection, schedule: Q01DX005 (ip), vehicle: saline 110 % of control

Cc1cc(C)c(O)c(N=Nc2ccccc2)c1
inactive: [14] 105 % of control | [4] 105 % of control | [15] 105 % of control

Cc1cc(N(CCOS(C)(=O)=O)CCOS(C)(=O)=O)ccc1C=Nc1ccc(-c2nc(Cc3ccccc3)sc2C)cc1
inactive: dose: 12.5 mg/kg/injection, schedule: Q01DX009 (ip), vehicle: Klucel (hydroxypropylcellulose) (HPC) 101 % of control | dose: 12.5 mg/kg/injection, schedule: Q01DX009 (oral), vehicle: Klucel (hydroxypropylcellulose) (HPC) 106 % of control and 107 % of control | dose: 25.0 mg/kg/injection, schedule: Q01DX009 (oral), vehicle: Klucel (hydroxypropylcellulose) (HPC) 100 % of control and 107 % of control | dose: 50.0 mg/kg/injection, schedule: Q01DX009 (oral), vehicle: Klucel (hydroxypropylcellulose) (HPC) 106 % of control and 117 % of control | dose: 100.0 mg/kg/injection, schedule: Q01DX009 (oral), vehicle: Klucel (hydroxypropylcellulose) (HPC) 108 % of control | dose: 200.0 mg/kg/injection, schedule: Q01DX009 (oral), vehicle: Klucel (hydroxypropylcellulose) (HPC) 119 % of control and 124 % of control | dose: 400.0 mg/kg/injection, schedule: Q01DX009 (oral), vehicle: Klucel (hydroxypropylcellulose) (HPC) 106 % of control

CCC(O)CC1OC2(CCC1C)CC1OC(=O)/C=C\C(C)(O)C(O)C(C)C(O)C(OC3CC(OC)C(O)C(C)O3)C(O)C(C)(O)CCC/C=C/C3CC(C)COC3(O)CC(O2)C1C (stereo unspecified)
inactive: dose: 1.0 mg/kg/injection, schedule: Q01DX005 (ip), vehicle: saline + alcohol 100 % of control | dose: 2.0 mg/kg/injection, schedule: Q01DX005 (ip), vehicle: saline + alcohol 104 % of control

O=C(NC(Cc1ccccc1)C(=O)N1CCCC1C(=O)O)OCc1ccccc1 (stereo not drawn) (Cbz-Phe-Pro-OH; configuration not given here)
inactive: [10] 95 % of control | [11] 100 % of control | [13] 97 % of control

CCCCCCCCCOCC(COP(=O)([O-])OCC[N+](C)(C)C)OC (stereo unspecified)
inactive: dose: 50.0 mg/kg/injection, schedule: Q01DX005 (ip), vehicle: saline 99 % of control | dose: 100.0 mg/kg/injection, schedule: Q01DX005 (ip), vehicle: saline 103 % of control

COc1ccc(CC(C#N)c2ccc(Cl)cc2)cc1 (stereo unspecified)
inactive: [5] 107 % of control | [12] 101 % of control | [6] 98 % of control | dose: 400.0 mg/kg/injection, schedule: Q01DX009 (ip), vehicle: Klucel (hydroxypropylcellulose) (HPC) 98 % of control

CCOCC1COc2c(cc3[nH]cc(C(=O)O)c(=O)c3c2Cl)O1 (stereo unspecified)
inactive: [1] 95 % of control | [2] 93 % of control | [3] 95 % of control

CSC(=S)n1nc(-c2ccccc2)c(N=Nc2ccc(Br)cc2)c1-c1ccccc1
inactive: dose: 100.0 mg/kg/injection, schedule: Q04DX002 (ip), vehicle: Klucel (hydroxypropylcellulose) (HPC) 100 % of control | dose: 200.0 mg/kg/injection, schedule: Q04DX002 (ip), vehicle: Klucel (hydroxypropylcellulose) (HPC) 97 % of control | dose: 400.0 mg/kg/injection, schedule: Q04DX002 (ip), vehicle: Klucel (hydroxypropylcellulose) (HPC) 101 % of control

Clc1ccc(-n2ccc(=N/N=C/c3ccc(Cl)c(Cl)c3)cc2)cc1
inactive: dose: 25.0 mg/kg/injection, schedule: Q01DX001 (ip), vehicle: Klucel (hydroxypropylcellulose) (HPC) 100 % of control | dose: 50.0 mg/kg/injection, schedule: Q01DX001 (ip), vehicle: Klucel (hydroxypropylcellulose) (HPC) 100 % of control | dose: 100.0 mg/kg/injection, schedule: Q01DX001 (ip), vehicle: Klucel (hydroxypropylcellulose) (HPC) 100 % of control and 96 % of control

CC1=NNC2(CCCCC2)C1
inactive: dose: 12.5 mg/kg/injection, schedule: Q01DX009 (ip), vehicle: water 113 % of control | dose: 25.0 mg/kg/injection, schedule: Q01DX009 (ip), vehicle: water 103 % of control | dose: 50.0 mg/kg/injection, schedule: Q01DX009 (ip), vehicle: water 94 % of control | dose: 100.0 mg/kg/injection, schedule: Q01DX009 (ip), vehicle: water 111 % of control | dose: 200.0 mg/kg/injection, schedule: Q01DX009 (ip), vehicle: water 106 % of control

COc1cccc(C2c3cc4c(cc3OC(C)(O)C2C)OCO4)c1O (stereo unspecified)
inactive: dose: 60.0 mg/kg/injection, schedule: Q01DX005 (ip), vehicle: Klucel (hydroxypropylcellulose) (HPC) 96 % of control | dose: 120.0 mg/kg/injection, schedule: Q01DX005 (ip), vehicle: Klucel (hydroxypropylcellulose) (HPC) 98 % of control | dose: 240.0 mg/kg/injection, schedule: Q01DX005 (ip), vehicle: Klucel (hydroxypropylcellulose) (HPC) 93 % of control

N#Cc1cccn1OCN1C(=O)c2ccccc2C1=O
inactive: dose: 25.0 mg/kg/injection, schedule: Q04DX003 (ip), vehicle: Klucel (hydroxypropylcellulose) (HPC) 100 % of control | dose: 50.0 mg/kg/injection, schedule: Q04DX003 (ip), vehicle: Klucel (hydroxypropylcellulose) (HPC) 103 % of control | [7] 100 % of control and 92 % of control | [9] 87 % of control

CCOC(=O)[C@]12CCC[C@@]1(O)NC(=O)c1cnccc12
inactive: [14] 100 % of control | [4] 97 % of control | [15] 93 % of control
